According to ChEMBL document CHEMBL5653615 (J Biol Chem, 2013):

Key:
[1] = molecular target: Tyrosine-protein kinase HCK (Homo sapiens) (UniProt P08631); test: Inhibition of human HCK at 500 nM by HotSpot assay relative to control
[2] = molecular target: Homeodomain-interacting protein kinase 3 (Homo sapiens) (UniProt Q9H422); test: Inhibition of human HIPK3 at 500 nM by HotSpot assay relative to control
[3] = molecular target: Dual specificity mitogen-activated protein kinase kinase 1 (Homo sapiens) (UniProt Q02750); test: Inhibition of human MEK1 at 500 nM by HotSpot assay relative to control
[4] = molecular target: T1, NUAK family SNF1-like kinase 2 (Homo sapiens) (UniProt Q9H093); test: Inhibition of human NUAK2 at 500 nM by HotSpot assay relative to control
T1 sequence (whole entry): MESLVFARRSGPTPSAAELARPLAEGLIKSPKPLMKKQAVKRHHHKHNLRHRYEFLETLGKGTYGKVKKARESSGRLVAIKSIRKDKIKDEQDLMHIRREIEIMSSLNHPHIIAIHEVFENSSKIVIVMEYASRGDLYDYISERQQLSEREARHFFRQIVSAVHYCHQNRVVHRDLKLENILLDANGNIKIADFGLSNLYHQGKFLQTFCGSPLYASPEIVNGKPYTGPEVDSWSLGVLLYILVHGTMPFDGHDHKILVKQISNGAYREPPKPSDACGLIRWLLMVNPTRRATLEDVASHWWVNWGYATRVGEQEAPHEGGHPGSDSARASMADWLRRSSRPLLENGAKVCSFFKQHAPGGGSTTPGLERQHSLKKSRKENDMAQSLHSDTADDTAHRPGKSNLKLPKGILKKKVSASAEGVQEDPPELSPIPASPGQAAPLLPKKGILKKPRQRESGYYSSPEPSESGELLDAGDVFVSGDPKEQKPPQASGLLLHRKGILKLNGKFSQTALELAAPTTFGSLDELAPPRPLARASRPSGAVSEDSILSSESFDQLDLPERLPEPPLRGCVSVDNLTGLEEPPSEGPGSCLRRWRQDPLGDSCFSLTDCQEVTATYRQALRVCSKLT

[5] = molecular target: Mitogen-activated protein kinase 11 (Homo sapiens) (UniProt Q15759); test: Inhibition of human MAPK11 at 500 nM by HotSpot assay relative to control
Chain of Mitogen-activated protein kinase 11 (Homo sapiens) (Q15759 whole entry): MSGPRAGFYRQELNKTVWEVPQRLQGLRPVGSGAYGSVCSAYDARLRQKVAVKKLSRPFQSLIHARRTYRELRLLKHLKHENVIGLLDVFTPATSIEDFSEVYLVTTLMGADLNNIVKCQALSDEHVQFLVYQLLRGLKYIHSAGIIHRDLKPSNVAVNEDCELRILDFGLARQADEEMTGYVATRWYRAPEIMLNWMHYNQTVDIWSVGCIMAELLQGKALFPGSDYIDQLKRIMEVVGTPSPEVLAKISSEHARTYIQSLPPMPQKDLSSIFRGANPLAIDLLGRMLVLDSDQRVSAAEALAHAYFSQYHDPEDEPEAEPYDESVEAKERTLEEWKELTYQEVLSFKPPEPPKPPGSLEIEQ

[6] = molecular target: Ephrin type-B receptor 4 (Homo sapiens) (UniProt P54760); test: Inhibition of human EPHB4 at 500 nM by HotSpot assay relative to control
[7] = molecular target: T2, Serine/threonine-protein kinase 3 (Homo sapiens) (UniProt Q13188); test: Inhibition of human STK3 at 500 nM by HotSpot assay relative to control
T2 sequence (whole entry): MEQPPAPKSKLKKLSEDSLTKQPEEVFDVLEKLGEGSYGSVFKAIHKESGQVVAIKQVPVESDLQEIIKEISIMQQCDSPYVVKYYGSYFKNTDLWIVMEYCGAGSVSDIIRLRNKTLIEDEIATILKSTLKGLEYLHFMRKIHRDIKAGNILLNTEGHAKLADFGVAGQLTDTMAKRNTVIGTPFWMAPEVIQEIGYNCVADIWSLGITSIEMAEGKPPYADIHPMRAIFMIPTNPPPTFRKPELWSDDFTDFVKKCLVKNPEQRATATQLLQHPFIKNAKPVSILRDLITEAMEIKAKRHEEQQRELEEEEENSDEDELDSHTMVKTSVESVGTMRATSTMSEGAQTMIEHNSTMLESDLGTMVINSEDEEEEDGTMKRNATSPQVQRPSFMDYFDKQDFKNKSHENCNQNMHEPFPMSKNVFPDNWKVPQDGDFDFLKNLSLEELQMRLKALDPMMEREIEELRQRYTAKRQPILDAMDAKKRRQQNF

[8] = molecular target: T3, Serine/threonine-protein kinase A-Raf (Homo sapiens) (UniProt P10398); test: Inhibition of human ARAF at 500 nM by HotSpot assay relative to control
T3 sequence (whole entry): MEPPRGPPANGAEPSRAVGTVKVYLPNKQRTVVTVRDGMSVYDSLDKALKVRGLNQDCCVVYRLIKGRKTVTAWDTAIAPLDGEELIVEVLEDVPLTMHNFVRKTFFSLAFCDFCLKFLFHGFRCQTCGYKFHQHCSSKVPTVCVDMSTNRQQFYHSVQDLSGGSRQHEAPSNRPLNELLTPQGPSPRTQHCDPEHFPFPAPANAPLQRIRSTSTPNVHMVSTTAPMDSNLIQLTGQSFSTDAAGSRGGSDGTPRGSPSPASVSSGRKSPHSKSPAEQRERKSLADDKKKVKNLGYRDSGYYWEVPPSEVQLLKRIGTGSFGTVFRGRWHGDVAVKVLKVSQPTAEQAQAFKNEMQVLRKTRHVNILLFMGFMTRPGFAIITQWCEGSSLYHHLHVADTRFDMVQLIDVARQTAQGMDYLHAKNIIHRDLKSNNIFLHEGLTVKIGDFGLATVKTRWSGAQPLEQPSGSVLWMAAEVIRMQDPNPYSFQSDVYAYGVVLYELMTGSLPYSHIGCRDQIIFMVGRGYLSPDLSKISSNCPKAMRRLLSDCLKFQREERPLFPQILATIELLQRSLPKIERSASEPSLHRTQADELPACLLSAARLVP

[9] = molecular target: Protein kinase C theta type (Homo sapiens) (UniProt Q04759); test: Inhibition of human PKCtheta at 500 nM by HotSpot assay relative to control
Chain of Protein kinase C theta type (Homo sapiens) (Q04759 whole entry, looked up): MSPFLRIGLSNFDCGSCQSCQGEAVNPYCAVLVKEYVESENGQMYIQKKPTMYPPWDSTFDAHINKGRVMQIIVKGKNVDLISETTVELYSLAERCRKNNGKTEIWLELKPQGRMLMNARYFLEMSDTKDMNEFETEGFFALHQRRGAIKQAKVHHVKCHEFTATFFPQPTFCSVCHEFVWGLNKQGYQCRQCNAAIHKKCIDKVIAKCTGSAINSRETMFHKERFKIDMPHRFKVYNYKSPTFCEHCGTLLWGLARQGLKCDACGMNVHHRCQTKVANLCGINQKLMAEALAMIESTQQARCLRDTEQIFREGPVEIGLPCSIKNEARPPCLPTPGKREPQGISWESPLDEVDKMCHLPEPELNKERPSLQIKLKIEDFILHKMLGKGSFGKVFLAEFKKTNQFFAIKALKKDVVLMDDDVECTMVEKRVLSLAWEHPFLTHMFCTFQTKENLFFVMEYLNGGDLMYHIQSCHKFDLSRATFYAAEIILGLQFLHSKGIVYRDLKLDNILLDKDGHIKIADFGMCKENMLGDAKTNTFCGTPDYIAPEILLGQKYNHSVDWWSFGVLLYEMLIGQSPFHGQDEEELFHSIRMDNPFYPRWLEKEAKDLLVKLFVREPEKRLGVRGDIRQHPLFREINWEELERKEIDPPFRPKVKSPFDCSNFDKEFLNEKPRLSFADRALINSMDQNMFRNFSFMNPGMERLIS

[10] = molecular target: Rho-associated protein kinase 1 (Homo sapiens) (UniProt Q13464); test: Inhibition of human ROCK1 at 500 nM by HotSpot assay relative to control
Chain of Rho-associated protein kinase 1 (Homo sapiens) (Q13464 2-1354 limits assumed): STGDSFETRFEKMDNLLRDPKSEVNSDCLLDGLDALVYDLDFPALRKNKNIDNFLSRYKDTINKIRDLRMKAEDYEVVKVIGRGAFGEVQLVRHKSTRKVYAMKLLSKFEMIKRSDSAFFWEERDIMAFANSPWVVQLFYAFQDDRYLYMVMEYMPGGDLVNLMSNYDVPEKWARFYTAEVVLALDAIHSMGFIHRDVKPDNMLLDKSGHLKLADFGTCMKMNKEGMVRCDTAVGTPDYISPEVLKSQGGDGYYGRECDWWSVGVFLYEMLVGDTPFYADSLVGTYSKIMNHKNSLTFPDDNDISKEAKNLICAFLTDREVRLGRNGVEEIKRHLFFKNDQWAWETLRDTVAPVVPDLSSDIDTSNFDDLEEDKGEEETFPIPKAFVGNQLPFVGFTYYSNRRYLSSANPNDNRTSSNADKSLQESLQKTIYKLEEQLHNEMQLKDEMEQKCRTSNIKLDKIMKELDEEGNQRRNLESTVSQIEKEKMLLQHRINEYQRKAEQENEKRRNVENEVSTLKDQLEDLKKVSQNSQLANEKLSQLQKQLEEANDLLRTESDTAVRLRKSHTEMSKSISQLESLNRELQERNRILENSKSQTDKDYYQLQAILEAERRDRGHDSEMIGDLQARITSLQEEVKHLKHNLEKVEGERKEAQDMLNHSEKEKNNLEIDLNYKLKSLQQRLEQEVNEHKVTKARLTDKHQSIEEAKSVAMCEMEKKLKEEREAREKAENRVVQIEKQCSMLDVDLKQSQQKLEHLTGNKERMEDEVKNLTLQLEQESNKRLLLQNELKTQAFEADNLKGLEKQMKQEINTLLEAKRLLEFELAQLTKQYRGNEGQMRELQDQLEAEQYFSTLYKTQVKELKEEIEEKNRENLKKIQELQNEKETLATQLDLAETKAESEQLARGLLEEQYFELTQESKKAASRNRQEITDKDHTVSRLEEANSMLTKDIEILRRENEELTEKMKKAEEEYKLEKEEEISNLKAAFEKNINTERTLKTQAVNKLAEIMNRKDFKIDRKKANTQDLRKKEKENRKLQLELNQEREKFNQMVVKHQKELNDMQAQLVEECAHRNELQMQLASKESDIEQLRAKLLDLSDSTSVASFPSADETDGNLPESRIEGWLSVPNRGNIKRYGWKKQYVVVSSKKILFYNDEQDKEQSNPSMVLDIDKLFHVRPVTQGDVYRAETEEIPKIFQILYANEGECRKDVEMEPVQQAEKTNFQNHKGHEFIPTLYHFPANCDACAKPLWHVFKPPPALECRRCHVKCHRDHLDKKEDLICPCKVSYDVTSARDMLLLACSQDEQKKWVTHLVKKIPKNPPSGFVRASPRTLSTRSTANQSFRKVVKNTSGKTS

[11] = molecular target: T4, Serine/threonine-protein kinase Sgk2 (Homo sapiens) (UniProt Q9HBY8); test: Inhibition of human SGK2 at 500 nM by HotSpot assay relative to control
T4 sequence (whole entry): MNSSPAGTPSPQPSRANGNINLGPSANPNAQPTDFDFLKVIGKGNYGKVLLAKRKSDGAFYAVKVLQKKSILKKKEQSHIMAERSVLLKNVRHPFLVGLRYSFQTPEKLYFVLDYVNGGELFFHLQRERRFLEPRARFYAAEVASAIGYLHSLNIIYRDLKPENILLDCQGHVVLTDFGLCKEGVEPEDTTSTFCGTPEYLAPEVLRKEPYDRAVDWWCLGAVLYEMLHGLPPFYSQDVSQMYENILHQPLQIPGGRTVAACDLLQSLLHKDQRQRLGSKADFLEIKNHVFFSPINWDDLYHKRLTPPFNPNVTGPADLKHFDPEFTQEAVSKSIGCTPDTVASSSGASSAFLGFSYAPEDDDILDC

[12] = molecular target: Serine/threonine-protein kinase OSR1 (Homo sapiens) (UniProt O95747); test: Inhibition of human OXSR1 at 500 nM by HotSpot assay relative to control
[13] = molecular target: Ribosomal protein S6 kinase alpha-5 (Homo sapiens) (UniProt O75582); test: Inhibition of human RPS6KA5 at 500 nM by HotSpot assay relative to control
Chain of Ribosomal protein S6 kinase alpha-5 (Homo sapiens) (O75582 whole entry, looked up): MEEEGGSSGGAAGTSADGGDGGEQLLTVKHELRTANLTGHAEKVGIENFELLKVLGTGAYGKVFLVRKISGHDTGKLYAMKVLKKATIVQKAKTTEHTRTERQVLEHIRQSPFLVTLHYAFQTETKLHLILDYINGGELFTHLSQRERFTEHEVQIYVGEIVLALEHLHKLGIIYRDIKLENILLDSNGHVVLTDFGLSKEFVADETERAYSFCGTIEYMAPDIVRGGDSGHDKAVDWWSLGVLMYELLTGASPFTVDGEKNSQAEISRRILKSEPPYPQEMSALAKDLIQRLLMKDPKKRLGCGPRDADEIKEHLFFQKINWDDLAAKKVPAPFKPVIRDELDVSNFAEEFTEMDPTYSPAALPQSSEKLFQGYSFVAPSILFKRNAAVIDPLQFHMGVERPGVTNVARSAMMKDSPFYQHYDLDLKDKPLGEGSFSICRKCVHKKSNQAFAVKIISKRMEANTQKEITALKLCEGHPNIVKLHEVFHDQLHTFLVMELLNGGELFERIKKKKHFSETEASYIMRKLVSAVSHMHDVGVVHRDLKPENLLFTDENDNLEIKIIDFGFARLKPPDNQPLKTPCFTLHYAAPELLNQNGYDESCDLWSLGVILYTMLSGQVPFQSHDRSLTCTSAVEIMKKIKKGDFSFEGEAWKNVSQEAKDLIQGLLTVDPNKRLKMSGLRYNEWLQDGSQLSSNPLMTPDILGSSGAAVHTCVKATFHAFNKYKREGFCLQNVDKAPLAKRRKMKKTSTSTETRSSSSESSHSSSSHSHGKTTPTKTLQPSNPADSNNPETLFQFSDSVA

Chain of Homeodomain-interacting protein kinase 3 (Homo sapiens) (Q9H422 whole entry, looked up): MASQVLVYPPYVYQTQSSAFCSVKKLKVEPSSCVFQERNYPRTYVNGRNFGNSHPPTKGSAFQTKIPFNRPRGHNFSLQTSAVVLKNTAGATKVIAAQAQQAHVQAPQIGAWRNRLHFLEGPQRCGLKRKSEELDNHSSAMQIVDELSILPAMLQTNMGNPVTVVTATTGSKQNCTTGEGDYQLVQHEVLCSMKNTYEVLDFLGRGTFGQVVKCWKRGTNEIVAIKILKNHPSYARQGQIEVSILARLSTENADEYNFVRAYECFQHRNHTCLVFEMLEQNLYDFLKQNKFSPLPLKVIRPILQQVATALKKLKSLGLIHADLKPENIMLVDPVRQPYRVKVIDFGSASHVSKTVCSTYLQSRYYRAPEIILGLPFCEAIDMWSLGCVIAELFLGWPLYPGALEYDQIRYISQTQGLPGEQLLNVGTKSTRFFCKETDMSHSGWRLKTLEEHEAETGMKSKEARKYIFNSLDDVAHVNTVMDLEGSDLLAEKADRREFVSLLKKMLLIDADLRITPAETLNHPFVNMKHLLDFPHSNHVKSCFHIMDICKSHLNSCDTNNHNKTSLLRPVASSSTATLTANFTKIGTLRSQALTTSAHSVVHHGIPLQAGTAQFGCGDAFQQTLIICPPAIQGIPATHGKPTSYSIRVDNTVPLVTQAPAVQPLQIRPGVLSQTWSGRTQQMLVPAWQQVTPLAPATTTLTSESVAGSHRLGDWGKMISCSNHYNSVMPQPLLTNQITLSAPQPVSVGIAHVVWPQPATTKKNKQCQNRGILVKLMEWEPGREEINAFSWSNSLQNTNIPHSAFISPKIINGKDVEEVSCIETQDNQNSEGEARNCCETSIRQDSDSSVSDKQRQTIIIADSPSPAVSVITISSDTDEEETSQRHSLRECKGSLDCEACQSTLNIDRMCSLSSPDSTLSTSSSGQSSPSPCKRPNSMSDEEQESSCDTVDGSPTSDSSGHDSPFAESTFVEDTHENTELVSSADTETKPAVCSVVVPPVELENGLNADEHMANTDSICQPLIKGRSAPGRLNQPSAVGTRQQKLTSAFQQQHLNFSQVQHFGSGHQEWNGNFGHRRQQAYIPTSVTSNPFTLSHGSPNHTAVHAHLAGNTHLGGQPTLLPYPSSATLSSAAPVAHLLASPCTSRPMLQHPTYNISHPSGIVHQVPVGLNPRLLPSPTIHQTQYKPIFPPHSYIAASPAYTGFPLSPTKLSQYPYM
Chain of Tyrosine-protein kinase HCK (Homo sapiens) (P08631 2-526 limits assumed): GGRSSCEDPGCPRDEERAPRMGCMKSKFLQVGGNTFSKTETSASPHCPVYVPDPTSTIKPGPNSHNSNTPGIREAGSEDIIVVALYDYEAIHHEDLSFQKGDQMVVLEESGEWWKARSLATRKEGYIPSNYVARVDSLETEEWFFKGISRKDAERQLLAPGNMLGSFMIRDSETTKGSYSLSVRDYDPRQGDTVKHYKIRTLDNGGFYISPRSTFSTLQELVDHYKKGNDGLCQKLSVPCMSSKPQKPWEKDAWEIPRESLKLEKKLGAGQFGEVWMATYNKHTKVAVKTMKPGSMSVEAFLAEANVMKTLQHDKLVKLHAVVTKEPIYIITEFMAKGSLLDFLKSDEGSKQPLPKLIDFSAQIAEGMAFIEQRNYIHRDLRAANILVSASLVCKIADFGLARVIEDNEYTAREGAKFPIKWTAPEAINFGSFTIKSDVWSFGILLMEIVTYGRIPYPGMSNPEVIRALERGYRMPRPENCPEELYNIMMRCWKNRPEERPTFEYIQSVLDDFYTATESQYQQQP

Compound: Nc1n[nH]c2nnc(-c3c(-c4ccccc4)nn4ccccc34)cc12
- inhibition [1]: 8.92%
- inhibition [2]: -3.93%
- inhibition [3]: 5.65%
- inhibition [4]: 12.7%
- inhibition [5]: 10%
- inhibition [6]: 1.54%
- inhibition [7]: -2.01%
- inhibition [8]: 1.59%
- inhibition [9]: 20.1%
- inhibition [10]: -0.45%
- inhibition [11]: 1.2%
- inhibition [12]: -2.39%
- inhibition [13]: -1.32%

Compound: Oc1n[nH]c2nnc(-c3c(-c4ccccc4)nn4ccccc34)cc12
- inhibition [1]: 7.7%
- inhibition [2]: -0.3%
- inhibition [3]: 5.15%
- inhibition [4]: -6.46%
- inhibition [5]: 5.77%
- inhibition [6]: 2.91%
- inhibition [7]: 0.75%
- inhibition [8]: 2.19%
- inhibition [9]: 8.59%
- inhibition [10]: 3.01%
- inhibition [11]: 3.78%
- inhibition [12]: -8.54%
- inhibition [13]: -5.1%
